These results are taken from patent US8304422B2, “Compositions and methods for inhibition of the JAK pathway” (Rigel Pharmaceuticals, Inc., priority 2007, dated 2012).

For one assay, the system named is BaF3 V617F cells; UKE-1. As to the kind of experiment: Proliferation Assay (Cell Titer-Glo; Example 7). The note with it: proliferation 72 hours, inhibit JAK2 activity, cell line (BaF3 V617F or UKE-1) not stated. The format is cell-based. In short, it runs like this:
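Proliferation IC50s reflect 72 h compound exposure at 37 °C, read by Cell Titer-Glo luminescence. Compound was serially diluted 3-fold from a 5 mM DMSO stock and added as a 2× solution; BaF3 V617F cells were grown in RPMI/10% FBS, UKE-1 in Iscove's DMEM with FBS, equine serum and hydrocortisone.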

Assay [1] deals with Ramos B-Cell Line Stimulated with IL-4. As to the kind of experiment: Assay for Ramos B-Cell Line Stimulated with IL-4 (CD23 upregulation, FACS; Example 2). The format is cell-based. The note with it: human Ramos B cells, IL-4 50 units/mL for 20-24 hours, anti-CD23-PE. In short, it runs like this:
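Human Ramos B cells (5×10^4 per point, RPMI with 5% serum) preincubated 1 hour at 37° C with compound or DMSO, then stimulated with IL-4 at 50 units/mL final for 20-24 hours. CD23 upregulation measured by anti-CD23-PE staining and flow cytometry.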

In general, IC50 refers to the concentration that inhibits the measured activity by half. Higher therefore signals lower potency. On to `COc1cc(Nc2ncc(F)c(Nc3ccc(CNS(=O)(=O)C4CC4)cc3)n2)cc(OC)c1OC` [II-1, N4-(4-cyclopropylsulfonylaminomethyl)phenyl-5-fluoro-N2-(3,4,5-trimethoxy)phenyl-2,4-pyrimidinediamine], for which the IC50 in the assay with BaF3 V617F cells; UKE-1 came out at 405 nM; in assay [1], 123 nM.
On the same counts, the results for `Cc1cnc(Nc2ccc(C#N)cc2)nc1Nc1cccc(CNS(=O)(=O)C2CC2)c1` [II-25, N2-(4-cyano)phenyl-N4-(3-cyclopropylsulfonylaminomethyl)phenyl-5-methyl-2,4-pyrimidinediamine] are 2300 nM and 142 nM.
On the same counts, the results for `Cc1cc(C)cc(Nc2ncc(C)c(Nc3ccc4c(c3)CCN(S(=O)(=O)C3CC3)C4)n2)c1` [VIII-7, N4-[(N-cyclopropylsulfonyl)-1,2,3,4-tetrahydroisoquinolin-6-yl]-N2-(3,5-dimethyl)phenyl-5-methyl-2,4-pyrimidinediamine] are 478 nM and 110 nM.
In the case of `COc1ccc(Nc2ncc(C)c(Nc3cccc(CNS(=O)(=O)C4CC4)c3)n2)cc1Cl` [II-14, N2-(3-chloro-4-methoxy)phenyl-N4-(3-cyclopropylsulfonylaminomethyl)phenyl-5-methyl-2,4-pyrimidinediamine], the half-maximal inhibitory concentration (IC50) in the assay on BaF3 V617F cells; UKE-1 is 2190 nM; in assay [1] it was 152 nM.
Regarding `Cc1nc2cc(Nc3ncc(F)c(Nc4ccc(CNS(=O)(=O)C5CC5)cc4)n3)ccc2[nH]1` [III-5, N4-(4-cyclopropylsulfonylaminomethyl)phenyl-5-fluoro-N2-(2-methylbenzoimidazol-5-yl)-2,4-pyrimidinediamine], the half-maximal inhibitory concentration (IC50) with BaF3 V617F cells; UKE-1 was determined as 6310 nM; in assay [1] it was 178 nM.
As for `Cc1cnc(Nc2cccc(C(N)=O)c2)nc1Nc1cccc(CN(C)S(=O)(=O)C2CC2)c1` [II-22, N2-(3-aminocarbonyl)phenyl-N4-[3-(N-cyclopropylsulfonyl-N-methyl)aminomethyl]phenyl-5-methyl-2,4-pyrimidinediamine], the figures for the half-maximal inhibitory concentration (IC50) (with BaF3 V617F cells; UKE-1; in assay [1]) were 2690 nM and 302 nM, respectively.
For `Cc1cc(C)cc(Nc2ncc(C)c(Nc3ccc(CNS(=O)(=O)C4CC4)cc3)n2)c1` [II-7, N4-(4-cyclopropylsulfonylaminomethyl)phenyl-N2-(3,5-dimethyl)phenyl-5-methyl-2,4-pyrimidinediamine], the IC50 came to 688 nM with BaF3 V617F cells; UKE-1 and 44.9 nM in assay [1].
For `Cc1cnc(Nc2ccc(C(N)=O)cc2)nc1Nc1ccc(CN(C)S(=O)(=O)C2CC2)cc1` [II-19, N2-(4-aminocarbonyl)phenyl-N4-[4-(N-cyclopropylsulfonyl-N-methyl)aminomethyl]phenyl-5-methyl-2,4-pyrimidinediamine] the same measures were 2210 nM and 106 nM.
On the same counts, the results for `COc1c(C)cc(Nc2ncc(Cl)c(Nc3ccc(CNS(=O)(=O)C4CC4)cc3)n2)cc1C` [II-43, 5-chloro-N4-(4-cyclopropylsulfonylaminomethyl)phenyl-N2-(3,5-dimethyl-4-methoxy)phenyl-2,4-pyrimidinediamine] are 23.9 nM and 38.6 nM.
On the same counts, the results for `NC(=O)c1ccc(Nc2ncc(Cl)c(Nc3ccc(CNS(=O)(=O)C4CC4)cc3)n2)cc1` [II-37, N2-(4-aminocarbonyl)phenyl-5-chloro-N4-(4-cyclopropylsulfonylaminomethyl)phenyl-2,4-pyrimidinediamine] are 875 nM and 18.3 nM.
For `Cc1cnc(Nc2ccc3c(c2)nc(C)n3C)nc1Nc1ccc(CNS(=O)(=O)C2CC2)cc1` [IV-7, N4-(4-cyclopropylsulfonylaminomethyl)phenyl-N2-(1,2-dimethylbenzoimidazol-5-yl)-5-methyl-2,4-pyrimidinediamine], the results for the IC50 (in the assay with BaF3 V617F cells; UKE-1; in assay [1]) were 796 nM and 116 nM, respectively.
For `N#Cc1ccc(Nc2ncc(F)c(Nc3ccc(CNS(=O)(=O)C4CC4)cc3)n2)cc1` [II-29, N2-(4-cyano)phenyl-N4-(4-cyclopropylsulfonylaminomethyl)phenyl-5-fluoro-2,4-pyrimidinediamine] the same measures were 12500 nM and 78.6 nM.
For `Cc1cnc(Nc2cccc(C(N)=O)c2)nc1Nc1ccc(CNS(=O)(=O)C2CC2)cc1` [II-32, N2-(3-aminocarbonyl)phenyl-N4-(4-cyclopropylsulfonylaminomethyl)phenyl-5-methyl-2,4-pyrimidinediamine], the IC50 was determined as 1530 nM with BaF3 V617F cells; UKE-1 and 52.3 nM in assay [1].
On the same counts, the results for `O=C(NCCN1CCOCC1)n1ccc2ccc(Nc3ncc(F)c(Nc4ccc(CNS(=O)(=O)C5CC5)cc4)n3)cc21` [III-2, N4-[4-(Cyclopropylsulfonylaminomethyl)phenyl]-5-fluoro-N2-[1-(2-(N-morpholino)ethylaminocarbonyl)indol-6-yl]-2,4-pyrimidinediamine] are 6180 nM and 911 nM.
For `COc1c(C)cc(Nc2ncc(F)c(Nc3ccc(CNS(=O)(=O)C4CC4)cc3)n2)cc1C` [II-41, N4-(4-cyclopropylsulfonylaminomethyl)phenyl-N2-(3,5-dimethyl-4-methoxy)phenyl-5-fluoro-2,4-pyrimidinediamine] the same measures were 123 nM and 37.8 nM.
For `NC(=O)c1cccc(Nc2ncc(F)c(Nc3ccc(CNS(=O)(=O)C4CC4)cc3)n2)c1` [II-16, N2-(3-aminocarbonyl)phenyl-N4-(4-cyclopropylsulfonylaminomethyl)phenyl-5-fluoro-2,4-pyrimidinediamine] the same measures were 3290 nM and 265 nM.
Take `N#Cc1cccc(Nc2ncc(F)c(Nc3ccc(CNS(=O)(=O)C4CC4)cc3)n2)c1` [II-30, N2-(3-cyano)phenyl-N4-(4-cyclopropylsulfonylaminomethyl)phenyl-5-fluoro-2,4-pyrimidinediamine]: the IC50 in the assay with BaF3 V617F cells; UKE-1 was found to be 1130 nM; in assay [1], 94.6 nM.
For the molecule `NC(=O)c1ccc(Nc2ncc(F)c(Nc3ccc(CNS(=O)(=O)C4CC4)cc3)n2)cc1` [II-15, N2-(4-aminocarbonyl)phenyl-N4-(4-cyclopropylsulfonylaminomethyl)phenyl-5-fluoro-2,4-pyrimidinediamine], the IC50 with BaF3 V617F cells; UKE-1 came out at 8060 nM; in assay [1] it was 78.1 nM.
Regarding `COc1cc(Nc2ncc(C)c(Nc3ccc(CNS(=O)(=O)C4CC4)cc3)n2)cc(OC)c1OC` [II-9, N4-(4-cyclopropylsulfonylaminomethyl)phenyl-5-methyl-N2-(3,4,5-trimethoxy)phenyl-2,4-pyrimidinediamine], the figures for the IC50 (in the assay with BaF3 V617F cells; UKE-1; in assay [1]) were 408 nM and 82.6 nM, respectively.
In the case of `Cc1nc2cc(Nc3ncc(Cl)c(Nc4ccc(CNS(=O)(=O)C5CC5)cc4)n3)ccc2[nH]1` [III-6, 5-chloro-N4-(4-cyclopropylsulfonylaminomethyl)phenyl-N2-(2-methylbenzoimidazol-5-yl)-2,4-pyrimidinediamine], the concentration for half-maximal inhibition (IC50) with BaF3 V617F cells; UKE-1 amounted to 1450 nM; in assay [1] it was 26.6 nM.
On the same counts, the results for `Cc1cnc(Nc2ccc(C(N)=O)cc2)nc1Nc1ccc(CNS(=O)(=O)C2CC2)cc1` [II-31, N2-(4-aminocarbonyl)phenyl-N4-(4-cyclopropylsulfonylaminomethyl)phenyl-5-methyl-2,4-pyrimidinediamine] are 2130 nM and 35.7 nM.
For `Cc1cnc(Nc2ccc(C(N)=O)cc2)nc1Nc1ccc(CNS(=O)(=O)C2CC2)c(Cl)c1` [II-17, N2-(4-aminocarbonyl)phenyl-N4-(3-chloro-4-cyclopropylsulfonylaminomethyl)phenyl-5-methyl-2,4-pyrimidinediamine] the same measures were 2950 nM and 87.1 nM.
For `Cc1cc(C)cc(Nc2ncc(C)c(Nc3cccc(CNS(=O)(=O)C4CC4)c3)n2)c1` [II-11, N4-(3-cyclopropylsulfonylaminomethyl)phenyl-N2-(3,5-dimethyl)phenyl-5-methyl-2,4-pyrimidinediamine] the same measures were 2800 nM and 254 nM.
For the molecule `COc1c(C)cc(Nc2ncc(C)c(Nc3ccc(CNS(=O)(=O)C4CC4)cc3)n2)cc1C` [II-42, N4-(4-cyclopropylsulfonylaminomethyl)phenyl-N2-(3,5-dimethyl-4-methoxy)phenyl-5-methyl-2,4-pyrimidinediamine], the IC50 with BaF3 V617F cells; UKE-1 is 63.7 nM; in assay [1], 24.7 nM.
On the same counts, the results for `Cc1cc(C)cc(Nc2ncc(C)c(Nc3ccc(CNS(=O)(=O)C4CC4)c(Cl)c3)n2)c1` [II-38, N4-(3-chloro-4-cyclopropylsulfonylaminomethyl)phenyl-N2-(3,5-dimethyl)phenyl-5-methyl-2,4-pyrimidinediamine] are 1540 nM and 331 nM.
On the same counts, the results for `Cc1cc(C)cc(Nc2ncc(C)c(Nc3ccc(CN(C)S(=O)(=O)C4CC4)cc3)n2)c1` [II-39, N4-[4-(N-cyclopropylsulfonyl-N-methyl)aminomethyl]phenyl-N2-(3,5-dimethyl)phenyl-5-methyl-2,4-pyrimidinediamine] are 2040 nM and 327 nM.
`COc1ccc(Nc2ncc(C)c(Nc3ccc(CNS(=O)(=O)C4CC4)cc3)n2)cc1Cl` [II-10, N2-(3-chloro-4-methoxy)phenyl-N4-(4-cyclopropylsulfonylaminomethyl)phenyl-5-methyl-2,4-pyrimidinediamine]: the values for the IC50 (in the assay on BaF3 V617F cells; UKE-1; in assay [1]) were 708 nM and 57.8 nM, respectively.
For `Cc1cnc(Nc2ccc(C#N)cc2)nc1Nc1ccc(CNS(=O)(=O)C2CC2)cc1` [II-33, N2-(4-cyano)phenyl-N4-(4-cyclopropylsulfonylaminomethyl)phenyl-5-methyl-2,4-pyrimidinediamine] the same measures were 698 nM and 20.3 nM.
On the same counts, the results for `Cc1cc(C)cc(Nc2ncc(C)c(Nc3cccc(CN(C)S(=O)(=O)C4CC4)c3)n2)c1` [II-40, N4-[3-(N-cyclopropylsulfonyl-N-methyl)aminomethyl]phenyl-N2-(3,5-dimethyl)phenyl-5-methyl-2,4-pyrimidinediamine] are 2200 nM and 704 nM.
